Where two headings read alike, the source gives them in different places.
Key:
[1] = molecular target: recombinant RORγ Ligand Binding Domain (LBD) protein (Homo sapiens (Human), UniProt P51449); experiment: Radio-Ligand RORγ Binding Assay (Assay 1); details: competition with 25-hydroxy [26,27-3H]-cholesterol, SPA, read-out: RORγ Binding Ki Range*
Description: Radio-Ligand RORγ Binding Assay (Assay 1)
Compounds of the present invention were tested for ability to bind to RORγ in a cell-free competition assay with commercially available radio-ligand (RL), 25-hydroxy [26,27-^3H]— cholesterol (PerkinElmer, Cat. # NET674250UC), for a ligand binding site on a recombinant RORγ Ligand Binding Domain (LBD) protein expressed as a 6×His-Glutathione-S-Transferase (GST) fusion (“6×His” disclosed as SEQ ID NO: 2). The assay was performed in 96-well SPA plates (PerkinElmer, Cat. #1450-401) in 50 mM HEPES buffer, pH 7.4, containing 150 mM NaCl, 5 mM MgCl2, 10% (v/v) glycerol, 2 mM CHAPS, 0.5 mM β-octylglucopyranoside and 5 mM DTT. Tested compounds were dissolved in DMSO, and semi-log (3.162×) serial dilutions of the compounds were prepared in the same solvent. Two μL of the DMSO solutions were mixed with 28 μL of 8.6 nM 25-hydroxy [26,27-^3H]— cholesterol and 50 μL of 24 nM RORγ LBD. The plate was shaken at 700 rpm for 20 min and incubated for 10 min at rt, after which 40 μL of poly-Lys YSi SPA beads (PerkinElmer, Cat. # RPNQ0010) were added to achieve 50 μg of the beads per well. The plate was incubated on an orbital shaker for 20 min and then for 10 min without agitation at rt. SPA signal for tritium beta radiation was registered on PerkinElmer Microbeta plate reader. Percent inhibition values were calculated based on the high signal obtained with DMSO control and the low signal observed with 10 μM standard RORγ inverse agonist T0901317 (SigmaAldrich, Cat. # T2320). The percent inhibition vs. concentration data were fit into a four-parameter model, and […] values were calculated from the fit as the concentrations corresponding to the inflection points on the dose-response curves. Inhibitory constants (Ki) were calculated using the following equation, where [RL] is the concentration in the assay and KD is a dissociation constant of 25-hydroxy [26,27-^3H]-cholesterol: […]

[2] = molecular target: full-length RORγt in Jurkat cells (Homo sapiens (Human), UniProt P51449); experiment: RORγt 5xRORE Assay in Jurkat Cells (Assay 2); format: cell-based; details: Nanoluc luciferase reporter, 16-18 hrs
full-length RORγt in Jurkat cells, sequence (P51449 other isoform, or with tags, fused parts or gaps): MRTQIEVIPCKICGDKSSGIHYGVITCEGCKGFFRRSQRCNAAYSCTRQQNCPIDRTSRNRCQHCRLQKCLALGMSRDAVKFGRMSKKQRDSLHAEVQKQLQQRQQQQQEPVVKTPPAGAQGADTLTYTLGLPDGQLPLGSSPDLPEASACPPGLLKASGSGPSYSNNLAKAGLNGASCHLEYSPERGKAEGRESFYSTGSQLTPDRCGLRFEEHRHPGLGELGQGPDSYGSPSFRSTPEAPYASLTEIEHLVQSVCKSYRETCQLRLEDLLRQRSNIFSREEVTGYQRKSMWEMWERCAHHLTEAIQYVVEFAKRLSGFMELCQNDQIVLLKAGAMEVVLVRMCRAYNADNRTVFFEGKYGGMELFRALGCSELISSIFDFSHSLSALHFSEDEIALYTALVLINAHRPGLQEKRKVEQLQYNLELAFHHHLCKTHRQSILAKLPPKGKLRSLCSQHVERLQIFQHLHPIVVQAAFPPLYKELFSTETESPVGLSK
Description: [formula] RORγt 5xRORE Assay in Jurkat Cells (Assay 2)
Compounds of the present invention were tested for RORγ inverse agonist activity in a cell-based, transcriptional activity assay. Secreted Nanoluc® luciferase was used as a reporter for transcriptional activity of the full-length RORγt in Jurkat cells (ATCC, Cat. # TIB-152). A reporter plasmid was constructed by inserting 5 repeats of the ROR Response Element (RORE) […] (SEQ ID NO:1) into a commercially available promoterless plasmid pNL1.3[secNluc] (Promega, Cat. # N1021) using KpnI and HindIII restriction sites. The expression plasmid for RORγt was purchased (Geneocopoeia, Cat. # EX-T6988-M02). Jurkat cells (30 million cells) were transfected with 11 μg of EX-T6988-MO2 and 26 μg of the reporter plasmid in OptiMEM® media using Lipofectamine® LTX and Plus™ reagents (Life Technologies, Cat. #15338-100). After 5-6 h of incubation at 37° C./5% CO2, the cells were collected, resuspended in phenol-red free RPMI media containing 10% (v/v) delipidated FBS (Hyclone, Cat. # SH30855.03) and dispensed into 96-well clear bottom tissue culture plates (CoStar, Cat. #3603), at 80,000 cells per well. Tested compounds were added to the cells in the same media (final concentration of DMSO was 0.1% (v/v)), and the plates were incubated at 37° C./5% CO2 for 16-18 hrs. Luciferase activity in the conditioned supernatants was determined with NanoGlo® assay reagents (Promega, Cat. # N1130).

[3] = Table 8, read-out: RORγt5X IC50 Range*
[4] = Table 9, read-out: RORγt5X IC50 Range*

recombinant RORγ Ligand Binding Domain (LBD) protein, sequence (P51449 269-508): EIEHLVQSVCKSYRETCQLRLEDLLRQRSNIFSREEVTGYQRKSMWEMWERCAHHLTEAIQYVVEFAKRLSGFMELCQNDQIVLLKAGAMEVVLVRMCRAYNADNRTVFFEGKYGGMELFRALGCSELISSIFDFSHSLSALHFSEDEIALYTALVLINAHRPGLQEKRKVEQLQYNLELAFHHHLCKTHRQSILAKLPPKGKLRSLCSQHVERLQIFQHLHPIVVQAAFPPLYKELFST

Structure (SMILES) | Ki ([1]; Table 8) [nM] | IC50 [2, 3] [nM] | Ki ([1]; Table 9) [nM] | IC50 [2, 4] [nM]
CCS(=O)(=O)c1ccc(CC(=O)Nc2nc3c(s2)CN(C[C@H]2CC[C@H](C(F)(F)F)N(C)C2)[C@H]3C(C)C)cc1 [I-A22] | < 100 | < 100 |  | 
Cc1nnc(-c2ccc(CN3Cc4sc(NC(=O)Cc5ccc(S(C)(=O)=O)cc5)nc4[C@@H]3C(C)C)cc2)o1 |  |  | < 100 | < 100
CC(C)[C@@H]1c2nc(NC(=O)Cc3ccc(S(C)(=O)=O)cc3)sc2CN1Cc1ccc(OC(F)F)cc1F |  |  | 100 to 1000 | 100 to 1000
CC(C)[C@H]1c2nc(NC(=O)Cc3ccc(S(C)(=O)=O)cc3)sc2CN1Cc1ccc(C(F)(F)F)nn1 |  |  | 100 to 1000 | 100 to 1000
CCS(=O)(=O)c1ccc(CNC(=O)c2nc3c(s2)CN(C[C@H]2CC[C@H](C(F)(F)F)CC2)[C@H]3C(C)C)nc1 |  |  | 100 to 1000 | 100 to 1000
CCS(=O)(=O)c1ccc(CC(=O)Nc2nc3c(s2)CN([C@H](C)c2c(F)cc(Cl)cc2F)[C@H]3C(C)C)cc1 |  |  | < 100 | < 100
CCS(=O)(=O)c1ccc(CC(=O)Nc2nc3c(s2)CN(c2nccc(C(F)(F)F)n2)C3(C)C)cc1 |  |  | < 100 | > 1000
CCS(=O)(=O)c1ccc(CNC(=O)c2nc3c(s2)CN(CC2CN(CC(F)(F)F)CCO2)[C@H]3C(C)C)cc1 (stereo partly shown) |  |  | < 100 | > 1000
COc1ccc(CC(=O)Nc2nc3c(s2)CN(Cc2ccc(Cl)cc2)[C@H]3C(C)C)cc1 |  |  | < 100 | > 1000
CCS(=O)(=O)c1ccc(CNC(=O)c2nc3c(s2)CN(Cc2ccc(Cl)cc2)[C@H]3C(C)C)nc1 [I-L1, (S)-5-(4-chlorobenzyl)-N-((5-(ethylsulfonyl)pyridin-2-yl)methyl)-4-isopropyl-5,6-dihydro-4H-pyrrolo[3,4-d]thiazole-2-carboxamide] | < 100 | < 100 |  | 
CC(C)[C@H]1c2nc(NC(=O)Cc3ccc(S(C)(=O)=O)cc3)sc2CN1[C@H](C)c1ccc(C#N)c(F)c1 [I-B11] | < 100 | < 100 |  | 
CC(C)[C@H]1c2nc(NC(=O)Cc3ccc(S(C)(=O)=O)cc3)sc2CN1[C@@H](C)c1ccc(C#N)c(F)c1 [I-B12] | < 100 | < 100 |  | 
CCS(=O)(=O)c1ccc(CNC(=O)c2nc3c(s2)CN(Cc2ccc4nonc4c2)[C@H]3C(C)C)nc1 |  |  | < 100 | 100 to 1000
CCS(=O)(=O)c1ccc(CC(=O)Nc2nc3c(s2)CN(Cc2ccc4c(c2)OC(F)(F)O4)[C@H]3C(C)C)nc1 [I-L3] |  | < 100 |  | 
CCS(=O)(=O)c1ccc(CC(=O)Nc2nc3c(s2)CN(C[C@@H]2CC[C@@H](C(F)(F)F)N(C)C2)[C@H]3C(C)C)cc1 [I-A30] |  | < 100 |  | 
CC[C@@H]1c2nc(NC(=O)Cc3ccc(S(C)(=O)=O)cc3)sc2CN1Cc1ccc(OC(F)(F)F)nc1 |  |  | 100 to 1000 | 
CCS(=O)(=O)c1ccc(CNC(=O)c2nc3c(s2)CN(c2ncc(C(F)(F)F)cn2)[C@H]3C(C)C)cc1 |  |  | > 1000 | 
COC(=O)c1cnc(N2Cc3sc(NC(=O)Cc4ccc(S(C)(=O)=O)cc4)nc3[C@@H]2C(C)C)nc1 |  |  | > 1000 | 
CC(C)[C@H]1c2nc(C(=O)NCc3ccc(S(C)(=O)=O)cc3)sc2CN1Cc1ccc(C#N)cn1 |  |  | 100 to 1000 | 

Next, values leading:

Ki ([1]; Table 8) [nM] | IC50 [2, 3] [nM] | Ki ([1]; Table 9) [nM] | IC50 [2, 4] [nM] | Structure (SMILES)
 |  | < 100 | > 1000 | CCS(=O)(=O)c1ccc(CC(=O)Nc2nc3c(s2)CN(Cc2ccc(C#N)cc2C(F)(F)F)[C@H]3C(C)C)cc1
 |  | 100 to 1000 | > 1000 | CCS(=O)(=O)c1ccc(CC(=O)Nc2nc3c(s2)CN(Cc2ccn(C)c(=O)c2)[C@H]3C(C)C)cc1
 |  | < 100 | > 1000 | CCS(=O)(=O)c1ccc(CC(=O)Nc2nc3c(s2)CN([C@H](C)Cc2ccccc2)[C@@H]3C(C)C)cc1
 |  | < 100 | < 100 | CCS(=O)(=O)c1ccc(CC(=O)Nc2nc3c(s2)CN(C[C@H]2CC[C@H](O)CC2)[C@H]3C(C)C)cc1
 |  | < 100 | 100 to 1000 | CCS(=O)(=O)c1cnc(CC(=O)Nc2nc3c(s2)CN(Cc2ccc(C#N)cc2)[C@H]3C(C)C)nc1
 |  | < 100 | < 100 | CCS(=O)(=O)c1ccc(CC(=O)Nc2nc3c(s2)CN(Cc2ccc(Cl)cc2)[C@H]3C(C)C)c(Cl)c1
 |  | < 100 | < 100 | CCS(=O)(=O)c1ccc(CC(=O)Nc2nc3c(s2)CN(Cc2ccc(C(N)=O)cc2)[C@H]3C(C)C)cc1
< 100 | < 100 |  |  | CCS(=O)(=O)c1ccc(CC(=O)Nc2nc3c(s2)CN(Cc2ncc(C(F)(F)F)cn2)[C@H]3C(C)C)cc1 [I-A6]
 |  | < 100 | < 100 | CCS(=O)(=O)c1ccc(CC(=O)Nc2nc3c(s2)CN(Cc2ccc(Br)cc2)[C@H]3C(C)C)cc1
 |  | < 100 | < 100 | CCS(=O)(=O)c1ccc(CC(=O)Nc2nc3c(s2)CN([C@H]2COc4cc(Cl)ccc42)[C@H]3C(C)C)cc1 (relative stereo)
< 100 | < 100 |  |  | CCS(=O)(=O)c1ccc(CC(=O)Nc2nc3c(s2)CN(Cc2ccc(-c4nnnn4C)cc2)[C@H]3C(C)C)cc1 [I-A40]
 |  | 100 to 1000 | > 1000 | CC(C)[C@@H]1c2nc(NC(=O)Cc3ccc(S(C)(=O)=O)cc3)sc2CN1Cc1ccc(OC(F)(F)F)cc1
 |  | < 100 | > 1000 | CCS(=O)(=O)c1ccc(CC(=O)Nc2nc3c(s2)CN(c2nc(C)cc(C(F)(F)F)n2)[C@H]3C(C)C)cc1
 |  | < 100 | 100 to 1000 | CCS(=O)(=O)c1ccc(CC(=O)Nc2nc3c(s2)CN(Cc2cnc(C)nc2)[C@H]3C(C)C)cc1
 |  | 100 to 1000 | > 1000 | CC(C)[C@H]1c2nc(NC(=O)Cc3ccc(S(C)(=O)=O)cc3)sc2CN1Cc1ccn(C)c(=O)c1
< 100 | < 100 |  |  | CCS(=O)(=O)c1ccc(CC(=O)Nc2nc3c(s2)CN(Cc2ccc(-c4ccn(C)c(=O)c4)cc2)[C@H]3C(C)C)cc1 [I-A18, (S)-2-(4-(ethylsulfonyl)phenyl)-N-(4-isopropyl-5-(4-(1-methyl-2-oxo-1,2-dihydropyridin-4-yl)benzyl)-5,6-dihydro-4H-pyrrolo[3,4-d]thiazol-2-yl)acetamide]
 |  | < 100 | > 1000 | CCS(=O)(=O)c1ccc(CC(=O)Nc2nc3c(s2)CN(Cc2ccc(OC)cc2)[C@@H]3C(C)C)cc1
 |  | < 100 | > 1000 | CCS(=O)(=O)c1ccc(CC(=O)Nc2nc3c(s2)CN([C@H](C)c2ccccc2)[C@@H]3C(C)C)cc1 (single isomer, unassigned)
 |  | 100 to 1000 |  | Cc1ccc(CN2Cc3sc(NC(=O)Cc4ccc(S(C)(=O)=O)cc4)nc3[C@H]2C(C)C)cc1
 |  | 100 to 1000 |  | CCS(=O)(=O)c1ccc(CC(=O)Nc2nc3c(s2)CN(CC2CCOCC2)[C@@H]3C(C)C)cc1
